Measured values from patent US4997950A, “Novel C-terminal gastrin antagonists” (priority 1989, dated 1991).
Entries after “also recorded” stand apart in the source; their conditions may differ. Structures can show the parent of a compound that is named as a salt. Non-standard residues stand in square brackets, D forms with d. Residues, ends and D or L forms follow the SMILES beside them. *: point of attachment. Boc = CC(C)(C)OC(=O)*; βAla = NCCC(=O)O

Tests used:
[1] = system: acid secretion, isolated perfused rat stomach; assay: acid output from the isolated, perfused rat stomach, with or without gastrin-17; parameters: species or system rat (Wistar)
Procedure: In brief, stomachs from fasted male Wistar rats (240-270 g) were completely isolated and placed in organ baths filled with Krebs-Ringer buffer. The vascular bed was perfused at a rate of 2 ml.min^-1 with Krebs-Ringer buffer containing 5 mM glucose, 5 mM pyruvate, 40 mg.ml^-1 bovine serum albumin and 10% (v/v) fresh, washed ovine erythrocytes gassed with 96% O2, 4% CO2 by a membrane oxygenator. The gastric lumen was perfused with distilled water (pH 7.0) gassed with O2 (100%). All perfusates and the organ bath were kept at 37° C. After an initial "wash-out" period of 20 minutes, isobutylmethylxanthine (50 μM) was added to the vascular perfusate. After a further 20 minutes, the peptide to be tested was added, giving a final peptide concentration of 10^-9, 10^-7 or 10^-5 M. Five other stomachs were given 520 pM gastrin which was known to produce maximal acid secretion. Furthermore, each peptide was given together with gastrin (520 pM) to evaluate the gastrin inhibitory properties of the peptide. The acid output was determined by titration of the lumenal perfusate to neutrality with dodium hydroxide (1 mM).

[2] = system: gastrin / pentagastrin-stimulated acid secretion; conditions: cited from earlier work
[3] = system: pentagastrin stimulated acid secretion, rat stomach; assay: acid secretion from the ligated rat stomach; type: in vivo, rat (Sprague-Dawley); conditions: for ACID SECRETION: basal 26.7 ± 3.21
Procedure: In brief fasted male Sprague-Dawley rats (200-250 g) were anaesthetised by the intravenous administration of Sagital (0.1 mg/100 g body weight). The abdominal cavity of each rat was exposed and the stomach was ligated at the pyloric and cardiac sphincters. The test solution (200 μl), containing either saline, pentagastrin (1 μg) or the synthetic peptide in conjunction with pentagastrin (1 μg), was applied directly to the exposed stomach surface, and left for 80 minutes. The stomach was then removed and the contents were washed out with distilled water (15 ml). The washings were titrated to neutrality by the addition of sodium hydroxide (10 mM).

pepsin secretion = assay: inhibition of pepsin secretion in dogs with gastric fistula and Heidenhain pouch; type: in vivo, dog (beagle); conditions: for effect on pepsin secretion: gastric fistula
Procedure: (§1) In brief, six beagle dogs were surgically prepared with Heidenhain pouches and gastric fistula. The dogs were fasted for 18 hours before the experiment. […] Collections of gastric secretions were recovered at 10 minute intervals. Each dog received an intravenous infusion throughout the experiment consisting of 150 mM NaCl and 8 mM KCl at 2 ml.min^-1. Secretory stimulants and the synthetic peptides were added to this infusion at appropriate rates. The stimulants of gastric secretion used were pentagastrin and histamine phosphate. Pentagastrin (0.5 μg.Kg^-1.h^-1) was given for 1 hour and then the synthetic peptide was added to the infusion and continued for another hour at a dose of 20 pmol.kg^-1 h^-1. The procedure was identical for histamine except that the dose of histamine was […]. The ten minute samples were titrated to pH 7.0 by the addition of sodium hydroxide (1 mM) and the acid secretion was expressed as μmol H^+ per 10 minutes.

[4] = system: pentagastrin-stimulated acid secretion; assay: inhibition of pentagastrin-stimulated acid secretion in dogs with gastric fistula and Heidenhain pouch; type: in vivo, dog (beagle); conditions: for order of decreasing antagonist activity: 20 pmol.kg^-1.h^-1; for effect on pentagastrin-stimulated acid secretion: 20 pmol.kg^-1.h^-1, gastric fistula and Heidenhain pouch; for ACID INHIBITION / percentage inhibition of acid: analogue 20 pmol.kg^-1.h^-1, period 110-170 minutes
Procedure: as §1
The analogues depicted in Table 6.5 were tested as gastrin antagonists using dogs surgically prepared with gastric fistulae and Heidenhain pouches. The acid secretion was measured at 10 minute intervals during the administration of pentagastrin and each of the analogues.

SMILES: CSCCC(NC(=O)C(Cc1c[nH]c2ccccc12)NC(=O)CNC(=O)C(Cc1ccc(O)cc1)NC(=O)C(C)NC(=O)C(CCC(=O)O)NC(=O)C(CCC(=O)O)NC(=O)C(CCC(=O)O)NC(=O)[C@H](CCC(=O)O)NC(=O)[C@H](CCC(=O)O)NC(=O)[C@H](CC(C)C)NC(=O)[C@H](Cc1c[nH]c2ccccc12)NC(=O)[C@@H]1CCCN1C(=O)CNC(=O)[C@@H](N)CCC(=O)O)C(=O)NC(CC(=O)O)C(=O)NC(Cc1ccccc1)C(N)=O (stereo in doubt) [GASTRIN]
- Acid output ([1]; gastrin 520 pM alone, basal 8.7): 58.7 μmol H^+ /60 min

SMILES: CC(C)C[C@H](NC(=O)[C@H](Cc1c[nH]c2ccccc12)NC(=O)OC(C)(C)C)C(=O)N[C@@H](CC(=O)O)C(N)=O [N-tBOC-Trp-Leu-Asp-NH2] (Boc-Trp-Leu-Asp-NH2)
- antagonist activity [2]: shortest sequence still retaining antagonist activity
- concentration at which antagonist properties are exhibited [2]: 100 µM
- reduction of acid secretion ([2]; joint infusion of peptide (40 μg/kg) and pentagastrin (0.5 μg/kg)): 50%

SMILES: CSCC[C@H](NC(=O)[C@H](Cc1c[nH]c2ccccc12)NC(=O)CCNC(=O)OC(C)(C)C)C(=O)N[C@@H](CC(=O)O)C(=O)N[C@@H](Cc1ccccc1)C(N)=O [PENTAGASTRIN, reference compound]
- ACID SECRETION ([3]; pentagastrin 13 nmol/kg alone): 60.6 ± 8.63 μmol/80 min

SMILES: CC(C)C[C@H](NC(=O)[C@H](Cc1c[nH]c2ccccc12)NC(=O)OC(C)(C)C)C(=O)NCCC(=O)O [Peptide I, t-Butyloxycarbonyl-L-Tryptophyl-L-Leucyl-β-Alanine] (Boc-Trp-Leu-[βAla]-OH)
- Inhibition of Pepsin Secretion (pepsin secretion; GF (gastric fistula)): 67.3 Units/kg
- percentage inhibition of pepsin secretion (pepsin secretion; GF (gastric fistula)): 59.2%
- Inhibition of Pepsin Secretion (pepsin secretion; HP (Heidenhain pouch)): 1.65 Units/kg
- effect on pepsin secretion (pepsin secretion): significant decrease in pepsin secretion from the gastric fistula
- ACID SECRETION ([3]; peptide 8.2 nmol/kg + pentagastrin 13 nmol/kg): 22.7 ± 7.27 μmol/80 min
- effect on acid secretion, ligated stomach ([3]; peptide I 8.2 nmol.Kg^-1 with pentagastrin, peptide XXII 80 or 4 pmol.Kg^-1): potent antagonist of pentagastrin stimulated acid secretion; also recorded: reduced to a value similar to the basal level
- ACID SECRETION ([3]; peptide alone 8.2 nmol/kg): 28.6 ± 4.21 μmol/80 min
- order of decreasing antagonist activity [4]: I>III>XIV>XV>II
- effect on pentagastrin-stimulated acid secretion ([4]; listed as Boc-Trp-Leu-β-Ala): retaining potent antagonistic properties
- effect on pentagastrin-stimulated acid secretion ([4]; listed as Boc-Trp-leu-β-Ala): most potent antagonist of the series
- ACID INHIBITION ([4]; GF (gastric fistula)): 617.58 mmol H^+ /kg
- percentage inhibition of acid ([4]; GF (gastric fistula)): 60%
- ACID INHIBITION ([4]; HP (Heidenhain pouch)): 35.70 mmol H^+ /kg
- percentage inhibition of acid ([4]; HP (Heidenhain pouch)): 55.8%

SMILES: CC(C)C[C@H](NC(=O)CCc1ccccc1)C(=O)NCCC(=O)O [Peptide II, Phenyl-3-Propionyl-Leucyl-β-Alanine]
- order of decreasing antagonist activity [4]: I>III>XIV>XV>II
- effect on pentagastrin-stimulated acid secretion [4]: gastrin antagonists although they are less potent than the parent peptide
- ACID INHIBITION ([4]; GF (gastric fistula)): 562.22 mmol H^+ /kg
- percentage inhibition of acid ([4]; GF (gastric fistula)): 54.7%
- ACID INHIBITION ([4]; HP (Heidenhain pouch)): 32.59 mmol H^+ /kg
- percentage inhibition of acid ([4]; HP (Heidenhain pouch)): 50.92%

SMILES: CC(C)C[C@H](NC(=O)CCc1c[nH]c2ccccc12)C(=O)NCCC(=O)O [Peptide III, Indole-3-Propionyl-L-Leucyl-β-Alanine]
- Inhibition of Pepsin Secretion (pepsin secretion; GF (gastric fistula)): 71.1 Units/kg
- percentage inhibition of pepsin secretion (pepsin secretion; GF (gastric fistula)): 62.5%
- Inhibition of Pepsin Secretion (pepsin secretion; HP (Heidenhain pouch)): 5.78 Units/kg
- effect on pepsin secretion (pepsin secretion): significant decrease in pepsin secretion from the gastric fistula
- order of decreasing antagonist activity [4]: I>III>XIV>XV>II
- effect on pentagastrin-stimulated acid secretion [4]: gastrin antagonists although they are less potent than the parent peptide
- ACID INHIBITION ([4]; GF (gastric fistula)): 125.51 mmol H^+ /kg
- percentage inhibition of acid ([4]; GF (gastric fistula)): 12.2%

SMILES: CC(C)C[C@H](NC(=O)CCc1c[nH]c2ccccc12)C(=O)N[C@@H](CC(=O)O)C(=O)NCCc1ccccc1 [Peptide V, Indole-3-Propionyl-L-Leucyl-L-Aspartyl-Phenethylamide]
- Inhibition of Pepsin Secretion (pepsin secretion; GF (gastric fistula)): -3.1 Units/kg
- percentage inhibition of pepsin secretion (pepsin secretion; GF (gastric fistula)): 0%
- Inhibition of Pepsin Secretion (pepsin secretion; HP (Heidenhain pouch)): 2.04 Units/kg
- ACID INHIBITION ([4]; GF (gastric fistula)): 303.25 mmol H^+ /kg
- percentage inhibition of acid ([4]; GF (gastric fistula)): 29.5%
- ACID INHIBITION ([4]; HP (Heidenhain pouch)): 11.00 mmol H^+ /kg
- percentage inhibition of acid ([4]; HP (Heidenhain pouch)): 17.2%

SMILES: CC(C)C[C@@H](C(=O)NCCC(=O)O)N(C)C(=O)CCc1ccccc1 [Peptide XIV, Phenyl-3-propionyl-N-methyl-L-Leucyl-β-Alanine]
- order of decreasing antagonist activity [4]: I>III>XIV>XV>II
- effect on pentagastrin-stimulated acid secretion [4]: antagonists with significant activity
- ACID INHIBITION ([4]; GF (gastric fistula)): 256.77 mmol H^+ /kg
- percentage inhibition of acid ([4]; GF (gastric fistula)): 25%

SMILES: CC(C)C[C@H](NC(=O)CCc1ccccc1)C(=O)N(C)CCC(=O)O [Peptide XV, Phenyl-3-propionyl-L-Leucyl-N-Methyl-β-Alanine]
- order of decreasing antagonist activity [4]: I>III>XIV>XV>II
- effect on pentagastrin-stimulated acid secretion [4]: antagonists with significant activity
- ACID INHIBITION ([4]; GF (gastric fistula)): 185.32 mmol H^+ /kg
- percentage inhibition of acid ([4]; GF (gastric fistula)): 18%

SMILES: CC(C)C[C@H](NC(=O)[C@@H](N)Cc1c[nH]c2ccccc12)C(=O)CN[C@@H](CC(=O)O)C(=O)N[C@@H](Cc1ccccc1)C(N)=O [Peptide XXI, L-Tryptophyl-L-Leucyl-.psi.(COCH2 NH)-L-Aspartyl-L-Phenylalanyl amide dihydrochloride]
- effect on acid secretion, isolated perfused stomach ([1]; 10^-9 to 10^-5 M, absence or presence of gastrin-17 520 pM, dihydrochloride): At low concentrations it inhibits basal acid secretion; also recorded: when administered at 10^-5 M or in conjunction with gastrin-17, it acts as a weak agonist; also recorded: partial agonist
- Acid output ([1]; peptide 10^-5 M + G-17 (520 pM), gastrin alone 58.7): 68.5 μmol H^+ /60 min
- Acid output ([1]; peptide 10^-5 M, basal 8.7): 22.4 μmol H^+ /60 min
- Acid output ([1]; peptide 10^-7 M, basal 8.7): 1.6 μmol H^+ /60 min
- Acid output ([1]; peptide 10^-9 M, basal 8.7): 2.2 μmol H^+ /60 min

SMILES: CC(C)C[C@H](NC(=O)[C@H](Cc1c[nH]c2ccccc12)NC(=O)CN1CC[C@H](NC(=O)[C@H](C)NC(=O)OC(C)(C)C)C1=O)C(=O)N[C@@H](CC(=O)O)C(=O)N[C@@H](Cc1ccccc1)C(N)=O [Peptide XXII, t-Butyloxycarbonyl-L-Alanyl-amino-2-oxo-1-pyrrolidineacetyl-L-Tryptophyl-L-Leucyl-L-Aspartyl-L-Phenylalanyl amide]
- increase of affinity for the gastrin receptor as compared to pentagastrin ([3]; deduced from γ-lactam peptide acid secretion): approximately 120 fold
